Numbers after ± are expanded uncertainties.
Experiment: xn = mol fraction of the nth substance listed
Conditions: 101 kPa, Liquid

CN(C)c1ccccc1 [N,N-dimethylaniline] + C1COCCO1
Conditions	mass density [kg/m3]	viscosity [mPa·s]
283.15 K, x2 = 0.3099	990.33 ± 2.4	1.68 ± 0.12
283.15 K, x2 = 0.4246	998.33 ± 2.2	1.66 ± 0.12
283.15 K, x2 = 0.5302	1005.32 ± 2.3	1.637 ± 0.12
283.15 K, x2 = 0.6278	1013.42 ± 2.5	1.629 ± 0.12
283.15 K, x2 = 0.7182	1019.31 ± 2.7	1.607 ± 0.11
283.15 K, x2 = 0.7749	1025.23 ± 2.8	1.606 ± 0.11
283.15 K, x2 = 0.8551	1034.31 ± 3	1.602 ± 0.11
283.15 K, x2 = 0.9081	1040.92 ± 3.2	1.591 ± 0.11
283.15 K, x2 = 0.9538	1043.01 ± 3.3	1.588 ± 0.11
293.15 K, x2 = 0.3099	980.73 ± 2.7	1.424 ± 0.1
293.15 K, x2 = 0.4246	989.12 ± 2.5	1.428 ± 0.1
293.15 K, x2 = 0.5302	995.81 ± 2.3	1.37 ± 0.098
293.15 K, x2 = 0.6278	1003.54 ± 2.3	1.362 ± 0.097
293.15 K, x2 = 0.7182	1011.33 ± 2.5	1.345 ± 0.096
293.15 K, x2 = 0.7749	1016.79 ± 2.6	1.339 ± 0.096
293.15 K, x2 = 0.8551	1023.65 ± 2.8	1.326 ± 0.095
293.15 K, x2 = 0.9081	1031.25 ± 3	1.33 ± 0.095
293.15 K, x2 = 0.9538	1035.34 ± 3.1	1.327 ± 0.095
303.15 K, x2 = 0.3099	973.4 ± 2.8	1.199 ± 0.087
303.15 K, x2 = 0.4246	980.12 ± 2.7	1.182 ± 0.086
303.15 K, x2 = 0.5302	986.56 ± 2.5	1.166 ± 0.085
303.15 K, x2 = 0.6278	993.63 ± 2.3	1.157 ± 0.084
303.15 K, x2 = 0.7182	1001.04 ± 2.2	1.142 ± 0.083
303.15 K, x2 = 0.7749	1005.98 ± 2.3	1.136 ± 0.083
303.15 K, x2 = 0.8551	1014.07 ± 2.5	1.131 ± 0.083
303.15 K, x2 = 0.9081	1019.01 ± 2.7	1.124 ± 0.082
303.15 K, x2 = 0.9538	1024.82 ± 2.8	1.122 ± 0.082
313.15 K, x2 = 0.3099	963.88 ± 3.1	1.029 ± 0.076
313.15 K, x2 = 0.4246	970.47 ± 2.9	1.025 ± 0.076
313.15 K, x2 = 0.5302	977.93 ± 2.7	1.01 ± 0.075
313.15 K, x2 = 0.6278	984.4 ± 2.6	1.002 ± 0.074
313.15 K, x2 = 0.7182	991.21 ± 2.4	0.987 ± 0.073
313.15 K, x2 = 0.7749	995.85 ± 2.3	0.984 ± 0.073
313.15 K, x2 = 0.8551	1003.65 ± 2.3	0.976 ± 0.073
313.15 K, x2 = 0.9081	1008.93 ± 2.4	0.965 ± 0.072
313.15 K, x2 = 0.9538	1014.66 ± 2.5	0.968 ± 0.072
323.15 K, x2 = 0.3099	955.01 ± 3.3	0.912 ± 0.068
323.15 K, x2 = 0.4246	961.76 ± 3.1	0.901 ± 0.068
323.15 K, x2 = 0.5302	968.52 ± 3	0.886 ± 0.067
323.15 K, x2 = 0.6278	974.24 ± 2.8	0.879 ± 0.066
323.15 K, x2 = 0.7182	981.34 ± 2.6	0.872 ± 0.066
323.15 K, x2 = 0.7749	985.13 ± 2.5	0.861 ± 0.065
323.15 K, x2 = 0.8551	993.17 ± 2.4	0.857 ± 0.065
323.15 K, x2 = 0.9081	997.95 ± 2.2	0.848 ± 0.064
323.15 K, x2 = 0.9538	1002.4 ± 2.2	0.845 ± 0.064
333.15 K, x2 = 0.3099	945.84 ± 3.5	0.811 ± 0.062
333.15 K, x2 = 0.4246	953.15 ± 3.3	0.798 ± 0.061
333.15 K, x2 = 0.5302	958.78 ± 3.2	0.786 ± 0.06
333.15 K, x2 = 0.6278	964.37 ± 3.1	0.779 ± 0.06
333.15 K, x2 = 0.7182	971.52 ± 2.9	0.771 ± 0.059
333.15 K, x2 = 0.7749	974.75 ± 2.8	0.763 ± 0.059
333.15 K, x2 = 0.8551	983.43 ± 2.6	0.761 ± 0.059
333.15 K, x2 = 0.9081	986.57 ± 2.5	0.75 ± 0.058
333.15 K, x2 = 0.9538	991.84 ± 2.4	0.751 ± 0.058
343.15 K, x2 = 0.3099	936.89 ± 3.7	0.725 ± 0.056
343.15 K, x2 = 0.4246	944.04 ± 3.6	0.716 ± 0.056
343.15 K, x2 = 0.5302	948.37 ± 3.5	0.71 ± 0.055
343.15 K, x2 = 0.6278	954.22 ± 3.3	0.711 ± 0.055
343.15 K, x2 = 0.7182	962.15 ± 3.1	0.689 ± 0.054
343.15 K, x2 = 0.7749	964.44 ± 3.1	0.683 ± 0.054
343.15 K, x2 = 0.8551	971.97 ± 2.9	0.678 ± 0.053
343.15 K, x2 = 0.9081	977.83 ± 2.7	0.674 ± 0.053
343.15 K, x2 = 0.9538	980.14 ± 2.7	0.67 ± 0.053

CN(C)c1ccccc1 [N,N-dimethylaniline] + CCCCCCO
Conditions	mass density [kg/m3]	viscosity [mPa·s]
283.15 K, x2 = 0.1009	958.16 ± 3.2	1.749 ± 0.12
283.15 K, x2 = 0.2017	944.54 ± 3.5	1.867 ± 0.13
283.15 K, x2 = 0.3022	928.83 ± 3.9	2.079 ± 0.14
283.15 K, x2 = 0.4025	915.52 ± 4.3	2.306 ± 0.16
283.15 K, x2 = 0.5026	904.21 ± 4.5	2.676 ± 0.18
283.15 K, x2 = 0.6025	890.94 ± 4.9	3.092 ± 0.21
283.15 K, x2 = 0.7022	876.26 ± 5.2	3.708 ± 0.25
283.15 K, x2 = 0.8016	861.23 ± 5.6	4.614 ± 0.3
283.15 K, x2 = 0.9009	848.23 ± 5.9	5.687 ± 0.36
293.15 K, x2 = 0.1009	950 ± 3.4	1.448 ± 0.1
293.15 K, x2 = 0.2017	936.43 ± 3.8	1.527 ± 0.11
293.15 K, x2 = 0.3022	920.62 ± 4.1	1.667 ± 0.12
293.15 K, x2 = 0.4025	909.23 ± 4.4	1.837 ± 0.13
293.15 K, x2 = 0.5026	896.74 ± 4.7	2.086 ± 0.14
293.15 K, x2 = 0.6025	882.6 ± 5.1	2.359 ± 0.16
293.15 K, x2 = 0.7022	868.6 ± 5.4	2.821 ± 0.19
293.15 K, x2 = 0.8016	852.26 ± 5.8	3.401 ± 0.23
293.15 K, x2 = 0.9009	841.25 ± 6.1	4.138 ± 0.27
303.15 K, x2 = 0.1009	942.24 ± 3.6	1.221 ± 0.088
303.15 K, x2 = 0.2017	928.31 ± 4	1.276 ± 0.092
303.15 K, x2 = 0.3022	912.67 ± 4.3	1.38 ± 0.099
303.15 K, x2 = 0.4025	901.18 ± 4.6	1.496 ± 0.11
303.15 K, x2 = 0.5026	888.09 ± 4.9	1.668 ± 0.12
303.15 K, x2 = 0.6025	875.63 ± 5.2	1.891 ± 0.13
303.15 K, x2 = 0.7022	860.74 ± 5.6	2.16 ± 0.15
303.15 K, x2 = 0.8016	846.02 ± 6	2.585 ± 0.17
303.15 K, x2 = 0.9009	832.65 ± 6.3	3.101 ± 0.21
313.15 K, x2 = 0.1009	933.77 ± 3.8	1.051 ± 0.077
313.15 K, x2 = 0.2017	920.41 ± 4.1	1.086 ± 0.08
313.15 K, x2 = 0.3022	904.59 ± 4.5	1.16 ± 0.084
313.15 K, x2 = 0.4025	892.85 ± 4.8	1.246 ± 0.09
313.15 K, x2 = 0.5026	879.8 ± 5.2	1.369 ± 0.098
313.15 K, x2 = 0.6025	867.83 ± 5.4	1.524 ± 0.11
313.15 K, x2 = 0.7022	852.77 ± 5.8	1.732 ± 0.12
313.15 K, x2 = 0.8016	839.15 ± 6.2	2.023 ± 0.14
313.15 K, x2 = 0.9009	824.98 ± 6.5	2.37 ± 0.16
323.15 K, x2 = 0.1009	925.31 ± 4	0.917 ± 0.069
323.15 K, x2 = 0.2017	912.27 ± 4.3	0.939 ± 0.07
323.15 K, x2 = 0.3022	896.34 ± 4.7	0.992 ± 0.074
323.15 K, x2 = 0.4025	885.58 ± 5	1.056 ± 0.078
323.15 K, x2 = 0.5026	872.2 ± 5.3	1.138 ± 0.083
323.15 K, x2 = 0.6025	859.03 ± 5.7	1.269 ± 0.091
323.15 K, x2 = 0.7022	843.94 ± 6	1.404 ± 0.1
323.15 K, x2 = 0.8016	831.15 ± 6.3	1.61 ± 0.11
323.15 K, x2 = 0.9009	818.33 ± 6.7	1.869 ± 0.13
333.15 K, x2 = 0.1009	916.93 ± 4.2	0.812 ± 0.062
333.15 K, x2 = 0.2017	905.29 ± 4.5	0.826 ± 0.063
333.15 K, x2 = 0.3022	887.96 ± 5	0.861 ± 0.065
333.15 K, x2 = 0.4025	876.93 ± 5.2	0.908 ± 0.068
333.15 K, x2 = 0.5026	864.04 ± 5.5	0.971 ± 0.072
333.15 K, x2 = 0.6025	849.87 ± 5.9	1.044 ± 0.077
333.15 K, x2 = 0.7022	837.74 ± 6.2	1.157 ± 0.084
333.15 K, x2 = 0.8016	823.68 ± 6.5	1.31 ± 0.094
333.15 K, x2 = 0.9009	810.66 ± 6.9	1.423 ± 0.1
343.15 K, x2 = 0.1009	909.05 ± 4.4	0.774 ± 0.06
343.15 K, x2 = 0.2017	895.76 ± 4.8	0.731 ± 0.057
343.15 K, x2 = 0.3022	880 ± 5.2	0.737 ± 0.057
343.15 K, x2 = 0.4025	867.83 ± 5.5	0.79 ± 0.061
343.15 K, x2 = 0.5026	854.24 ± 5.8	0.83 ± 0.063
343.15 K, x2 = 0.6025	842.51 ± 6.1	0.902 ± 0.068
343.15 K, x2 = 0.7022	829.06 ± 6.4	0.973 ± 0.072
343.15 K, x2 = 0.8016	813.99 ± 6.8	1.08 ± 0.079
343.15 K, x2 = 0.9009	803.44 ± 7	1.218 ± 0.088

From the NIST ThermoML archive (doi:10.1021/je700344f)
